Publication PMC7816196, “Antitubercular 2-Pyrazolylpyrimidinones: Structure–Activity Relationship and Mode-of-Action Studies” (Journal of Medicinal Chemistry, 2021)

Legend:
Format in all cases: cell-based, Mycobacterium tuberculosis
[1] = tested on: MmpL3 G596R
[2] = tested on: MmpL3 V681
[3] = tested on: MmpL3 F255L

Row | SMILES | MmpL3 G596R MIC [1] [µM] | MmpL3 V681 MIC [2] [µM] | MmpL3 F255L MIC [3] [µM]
1 | CC(=O)Nc1cc(C)nn1-c1nc(-c2ccccc2)cc(=O)[nH]1 [Compound 15, N-(3-Methyl-1-(4-oxo-6-phenyl-1,4-dihydropyrimidin-2-yl)-1H-pyrazol-5-yl)acetamide] | >200 | >200 | >200
2 | Cc1cc(Nc2ccc(F)cc2)n(-c2nc(C(F)(F)F)cc(=O)[nH]2)n1 [Compound 40, 2-(5-((4-Fluorophenyl)amino)-3-methyl-1H-pyrazol-1-yl)-6-(trifluoromethyl)pyrimidin-4(3H)-one] | – | – | >200
